Measured values as given in patent US20140224680A1, “KIT-OF-PARTS” (BOEHRINGER INGELHEIM VETMEDICA GMBH, priority 2013, published 2014).
Structures can show the parent of a compound that is named as a salt.

Assay: lipophilicity profile
Format: physicochemical
Conditions: neutral pH values versus acidic pH values
From the text: Usually, EC/HPMC films show sustained release behavior more or less independent of pH. […] This, together with the coating applied, is expected to result in a slower release at neutral pH values, sufficient to use the respective multi-layered particles for the application of this drug for the treatment of animals like cats.

COc1ccc(CCN2CCC[C@H](CN3CCc4cc(OC)c(OC)cc4CC3=O)C2)cc1OC [cilobradine hydrochloride]
lipophilicity: slightly more lipophilic at neutral pH values than at acidic pH values
